The source of these data is patent publication US20250326771A1, “PIPERAZINE DERIVATIVES USEFUL IN HIV THERAPY” (VIIV HEALTHCARE COMPANY, priority 2022, published 2025).

Where two headings read alike, the source gives them in different places.

For test [1], the system named is Jurkat HIV-luciferase clones. The test is described as follows: Jurkat latency reversal assay. It is filed as cell-based. The settings on record: Homo sapiens, 48 h; Jurkat latency reversal assay potency; read-out: Jurkat pEC50 (converted). In outline: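 Luminescence read-out: Steady-Glo after 48 h, 37° C, on mixed Jurkat HIV-luc clones (C16, 115, N6; 5,000 cells/well total). Cpd 14-pt 3-fold dilutions, duplicate, top 10 μM, 0.5% DMSO. EC50 + max % activation vs vehicle via 4-parameter fit.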

Test [2] deals with cIAP1-BIR3 (Homo sapiens (Human), UniProt Q13490). The test is described as follows: BIR binding assay (FRET competition), cIAP1 BIR3. As to conditions: for cIAP1 BIR3 vs BIR2 separation window: fold separation (FS) for cIAP1. Put shortly: (§1)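 615/665 nm FRET ratio. Compound, His-domain and 200 nM AF647-SMAC peptide incubated 60 min, then 2 nM Eu-W1024 for 30 min. Domains: cIAP1-BIR3 50 nM; XIAP-BIR3 100 nM; cIAP1-BIR2, cIAP2-BIR2 325 nM each. 15-pt 3-fold series; variable-slope IC50.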
Chain of cIAP1-BIR3 (Q13490 253-363): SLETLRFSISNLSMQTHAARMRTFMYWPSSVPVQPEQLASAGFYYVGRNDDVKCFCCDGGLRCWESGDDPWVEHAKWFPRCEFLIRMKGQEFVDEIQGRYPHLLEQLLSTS

The target in test [3] is cIAP1-BIR2 (Homo sapiens (Human), UniProt Q13490). As to the kind of experiment: BIR binding assay (FRET competition), cIAP1 BIR2. In outline:
as §1

The target in test [4] is cIAP2-BIR3 (Homo sapiens (Human), UniProt Q13489). As to the kind of experiment: BIR binding assay (FRET competition), cIAP2 BIR3. The settings on record: for cIAP2 BIR3 vs BIR2 separation window: fold separation (FS) for cIAP2.
Chain of cIAP2-BIR3 (Q13489 238-349): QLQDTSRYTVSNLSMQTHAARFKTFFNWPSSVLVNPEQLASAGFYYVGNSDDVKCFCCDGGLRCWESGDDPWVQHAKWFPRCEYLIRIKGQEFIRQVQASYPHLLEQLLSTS
Test [5] concerns the target cIAP2-BIR2 (Homo sapiens (Human), UniProt Q13489). As to the kind of experiment: BIR binding assay (FRET competition), cIAP2 BIR2. Put shortly:
as §1

Test [6] concerns the target XIAP-BIR3 (Homo sapiens (Human), UniProt P98170). The test is described as follows: BIR binding assay (FRET competition), XIAP BIR3. The settings on record: for XIAP BIR3 vs BIR2 separation window: fold separation (FS) for XIAP. Put shortly: as §1
The target of test [7] is XIAP-BIR2 (Homo sapiens (Human), UniProt P98170). As to the kind of experiment: BIR binding assay (FRET competition), XIAP BIR2. As to conditions: read-out: XIAP BIR2 (pIC50) (converted). In outline:
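Competitive TR-FRET used His-tagged XIAP-BIR2 (200 nM) and 200 nM AlexaFluor647-labelled AVPIAQKSE SMAC peptide in HEPES buffer pH 7.4 with CHAPS, glycerol and DTT, incubated 60 min before 30 min with 2 nM Eu-W1024. The 615/665 nm ratio from a 15-point, 3-fold series was fit with a four-parameter model for IC50/pIC50.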

Chain of cIAP1-BIR2 (Q13490 173-257): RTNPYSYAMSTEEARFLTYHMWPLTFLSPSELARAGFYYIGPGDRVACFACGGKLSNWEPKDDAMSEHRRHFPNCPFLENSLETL
Chain of XIAP-BIR2 (P98170 124-240): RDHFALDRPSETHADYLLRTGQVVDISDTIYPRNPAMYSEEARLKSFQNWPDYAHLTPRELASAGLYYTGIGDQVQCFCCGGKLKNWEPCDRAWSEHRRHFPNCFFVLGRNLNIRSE
Chain of cIAP2-BIR2 (Q13489 158-242): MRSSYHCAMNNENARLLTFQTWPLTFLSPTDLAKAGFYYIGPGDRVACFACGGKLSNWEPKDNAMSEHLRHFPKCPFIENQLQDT
Chain of XIAP-BIR3 (P98170 241-356): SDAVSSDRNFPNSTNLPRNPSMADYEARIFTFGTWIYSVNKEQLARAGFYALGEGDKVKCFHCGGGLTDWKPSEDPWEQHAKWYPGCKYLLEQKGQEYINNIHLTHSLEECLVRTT

Regarding `C[C@@H]1CN(CC(=O)N2CC(C)(C)c3[nH]c(=O)c(Cc4ccc(F)cc4)cc32)[C@@H](CN2CCO[C@H](C(=O)NCCCNC(=O)[C@@H]3CN(C[C@H]4CN[C@H](C)CN4CC(=O)N4CC(C)(C)c5[nH]c(=O)c(Cc6ccc(F)cc6)cc54)CCO3)C2)CN1` [Example 125, (2S,2'S)-N,N′-(Propane-1,3-diyl)bis(4-(((2R,5R)-1-(2-(6-(4-fluorobenzyl)-3,3-dimethyl-5-oxo-2,3,4,5-tetrahydro-1H-pyrrolo[3,2-b]pyridin-1-yl)-2-oxoethyl)-5-methylpiperazin-2-yl)methyl)morpholine-2-carboxamide)], the EC50 in test [1] is 63.1 to 316 nM. The IC50 is 7.94 to 15.8 nM in test [2]; 1 to 3.16 µM in test [3]; 7.94 to 15.8 nM in test [4]; 3.16 to 10 µM in test [5]; 15.8 to 31.6 nM in test [6]; 10 to 51.3 µM in test [7] (FRET competition binding). The “cIAP1 BIR3 vs BIR2 separation window” value in test [2] is reported as “+++ (10,000>FS>1,000)”. In test [4], the “cIAP2 BIR3 vs BIR2 separation window” value is listed as “+++ (10,000>FS>1,000)”. For the same molecule, the “XIAP BIR3 vs BIR2 separation window” value in test [6] was “++++ (FS>10,000)”.
As for `C[C@@H]1CN(CC(=O)N2CC(C)(C)c3[nH]c(=O)c(Cc4ccc(F)cc4)cc32)[C@@H](CN2CCO[C@H](C(=O)N[C@H]3CC[C@H](NC(=O)[C@@H]4CN(C[C@H]5CN[C@H](C)CN5CC(=O)N5CC(C)(C)c6[nH]c(=O)c(Cc7ccc(F)cc7)cc65)CCO4)CC3)C2)CN1` [Example 92, (2S,2'S)-N,N′-((1S,4S)-cyclohexane-1,4-diyl)bis(4-(((2R,5R)-1-(2-(6-(4-fluorobenzyl)-3,3-dimethyl-5-oxo-2,3,4,5-tetrahydro-1H-pyrrolo[3,2-b]pyridin-1-yl)-2-oxoethyl)-5-methylpiperazin-2-yl)methyl)morpholine-2-carboxamide)], in test [1], the EC50 was 12.6 to 63.1 nM. Besides, the IC50 is 1.38 to 7.94 nM in test [2]; 1 to 3.16 µM in test [3]; 7.94 to 15.8 nM in test [4]; 1 to 3.16 µM in test [5]; 7.94 to 15.8 nM in test [6]; 10 to 51.3 µM in test [7] (FRET competition binding). Also, the “cIAP1 BIR3 vs BIR2 separation window” value in test [2] is recorded as “+++ (10,000>FS>1,000)”. Also, the “cIAP2 BIR3 vs BIR2 separation window” value in test [4] was “+++ (10,000>FS>1,000)”. Besides, the “XIAP BIR3 vs BIR2 separation window” value in test [6] is listed as “++++ (FS>10,000)”.
For `C[C@@H]1CN(CC(=O)N2CC(C)(C)c3[nH]c(=O)c(Cc4ccc(F)cc4)cc32)[C@@H](CN2CCO[C@@H](COc3cccc(OC[C@H]4CN(C[C@H]5CN[C@H](C)CN5CC(=O)N5CC(C)(C)c6[nH]c(=O)c(Cc7ccc(F)cc7)cc65)CCO4)c3)C2)CN1` [Example 112, 1,1′-(2,2′-((3R,3′R,6R,6′R)-(((2R,2′R)-((1,3-phenylenebis(oxy))bis(methylene))bis(morpholine-2,4-diyl))bis(methylene))bis(3-methylpiperazine-6,1-diyl))bis(acetyl))bis(6-(4-fluorobenzyl)-3,3-dimethyl-1,2,3,4-tetrahydro-5H-pyrrolo[3,2-b]pyridin-5-one)], in test [1], the EC50 is 12.6 to 63.1 nM. For the same molecule, the IC50 was 7.94 to 15.8 nM in test [2]; 3.16 to 10 µM in test [3]; 7.94 to 15.8 nM in test [4]; 1 to 3.16 µM in test [5]; 15.8 to 31.6 nM in test [6]; 10 to 51.3 µM in test [7] (FRET competition binding). Besides, the “cIAP1 BIR3 vs BIR2 separation window” value in test [2] was “+++ (10,000>FS>1,000)”. Besides, in test [4], the “cIAP2 BIR3 vs BIR2 separation window” value is reported as “+++ (10,000>FS>1,000)”. The “XIAP BIR3 vs BIR2 separation window” value in test [6] was “+++ (10,000>FS>1,000)”.
For the molecule `C[C@@H]1CN(CC(=O)N2CC(C)(C)c3[nH]c(=O)c(Cc4ccc(F)cc4)cc32)[C@@H](CN2CCO[C@H](C(=O)N(C)CCCN(C)C(=O)[C@@H]3CN(C[C@H]4CN[C@H](C)CN4CC(=O)N4CC(C)(C)c5[nH]c(=O)c(Cc6ccc(F)cc6)cc54)CCO3)C2)CN1` [Example 130, (2S,2'S)-N,N′-(Propane-1,3-diyl)bis(4-(((2R,5R)-1-(2-(6-(4-fluorobenzyl)-3,3-dimethyl-5-oxo-2,3,4,5-tetrahydro-1H-pyrrolo[3,2-b]pyridin-1-yl)-2-oxoethyl)-5-methylpiperazin-2-yl)methyl)-N-methylmorpholine-2-carboxamide)], the EC50 in test [1] is 12.6 to 63.1 nM. In addition, the IC50 in test [2] is 1.38 to 7.94 nM; in test [3] it was 1 to 3.16 µM; in test [4] it was 1.38 to 7.94 nM; in test [5], 1 to 3.16 µM; in test [6], 7.94 to 15.8 nM; in test [7] (FRET competition binding), 10 to 51.3 µM. The “cIAP1 BIR3 vs BIR2 separation window” value in test [2] is on record as “+++ (10,000>FS>1,000)”. For the same molecule, the “cIAP2 BIR3 vs BIR2 separation window” value in test [4] is listed as “+++ (10,000>FS>1,000)”. Also, the “XIAP BIR3 vs BIR2 separation window” value in test [6] is “++++ (FS>10,000)”.
On to `C[C@@H]1CN(CC(=O)N2CC(C)(C)c3[nH]c(=O)c(Cc4ccc(F)cc4)cc32)[C@@H](CN2CCC(CC(=O)N(C)Cc3ccc(CN(C)C(=O)CC4CCN(C[C@H]5CN[C@H](C)CN5CC(=O)N5CC(C)(C)c6[nH]c(=O)c(Cc7ccc(F)cc7)cc65)CC4)cc3)CC2)CN1` [Example 106, N,N′-(1,4-phenylenebis(methylene))bis(2-(1-(((2R,5R)-1-(2-(6-(4-fluorobenzyl)-3,3-dimethyl-5-oxo-2,3,4,5-tetrahydro-1H-pyrrolo[3,2-b]pyridin-1-yl)-2-oxoethyl)-5-methylpiperazin-2-yl)methyl)piperidin-4-yl)-N-methylacetamide)], for which the EC50 in test [1] is 12.6 to 63.1 nM. Further, the IC50 is 1.38 to 7.94 nM in test [2]; 1 to 3.16 µM in test [3]; 1.38 to 7.94 nM in test [4]; 1 to 3.16 µM in test [5]; 1.38 to 7.94 nM in test [6]; 10 to 51.3 µM in test [7] (FRET competition binding). The “cIAP1 BIR3 vs BIR2 separation window” value in test [2] is “+++ (10,000>FS>1,000)”. In test [4], the “cIAP2 BIR3 vs BIR2 separation window” value is “+++ (10,000>FS>1,000)”. Further, the “XIAP BIR3 vs BIR2 separation window” value in test [6] is given as “++++ (FS>10,000)”.
On to `C[C@@H]1CN(CC(=O)N2CC(C)(C)c3[nH]c(=O)c(Oc4ccccc4)cc32)[C@@H](CN2CCO[C@H](C(=O)NCc3ccc(CNC(=O)[C@@H]4CN(C[C@H]5CN[C@H](C)CN5CC(=O)N5CC(C)(C)c6[nH]c(=O)c(Oc7ccccc7)cc65)CCO4)cc3)C2)CN1` [Compound 185, (2S,2′S)-N,N′-(1,4-phenylenebis(methylene)) bis(4-(((2R,5R)-1-(2-(3,3-dimethyl-5-oxo-6-phenoxy-2,3,4,5-tetrahydro-1H-pyrrolo[3,2-b]pyridin-1-yl)-2-oxoethyl)-5-methylpiperazin-2-yl)methyl)morpholine-2-carboxamide)], for which the EC50 in test [1] was 316 to 3310 nM. Also, the IC50 in test [2] is 15.8 to 31.6 nM; in test [3], 3.16 to 10 µM; in test [4], 1.38 to 7.94 nM; in test [5], 10 to 51.3 µM; in test [6], 31.6 to 501 nM; in test [7] (FRET competition), 10 to 51.3 µM. Further, the “cIAP1 BIR3 vs BIR2 separation window” value in test [2] is “+++ (10,000>FS>1,000)”. Moreover, in test [4], the “cIAP2 BIR3 vs BIR2 separation window” value is “++++ (FS>10,000)”. Moreover, the “XIAP BIR3 vs BIR2 separation window” value in test [6] is “+++ (10,000>FS>1,000)”.
For the molecule `Cc1c(OC[C@@H]2CN(C[C@H]3CN[C@H](C)CN3CC(=O)N3CC(C)(C)c4[nH]c(=O)c(Cc5ccc(F)cc5)cc43)CCO2)cccc1OC[C@@H]1CN(C[C@H]2CN[C@H](C)CN2CC(=O)N2CC(C)(C)c3[nH]c(=O)c(Cc4ccc(F)cc4)cc32)CCO1` [Example 79, 1,1′-(2,2′-((3R,3′R,6R,6′R)-(((2S,2'S)-(((2-methyl-1,3-phenylene)bis(oxy))bis(methylene))bis(morpholine-2,4-diyl))bis(methylene))bis(3-methylpiperazine-6,1-diyl))bis(acetyl))bis(6-(4-fluorobenzyl)-3,3-dimethyl-1,2,3,4-tetrahydro-5H-pyrrolo[3,2-b]pyridin-5-one)], the EC50 in test [1] was 0.49 to 12.6 nM. Besides, the IC50 is 1.38 to 7.94 nM in test [2]; 1 to 3.16 µM in test [3]; 1.38 to 7.94 nM in test [4]; 3.16 to 10 µM in test [5]; 7.94 to 15.8 nM in test [6]; 10 to 51.3 µM in test [7] (FRET competition binding). In addition, the “cIAP1 BIR3 vs BIR2 separation window” value in test [2] was “+++ (10,000>FS>1,000)”. The “cIAP2 BIR3 vs BIR2 separation window” value in test [4] was “+++ (10,000>FS>1,000)”. Besides, the “XIAP BIR3 vs BIR2 separation window” value in test [6] is listed as “++++ (FS>10,000)”.
